Results as given in ChEMBL document CHEMBL3885861, “Open TG-GATES”.

Species on record: Rattus norvegicus
Test: Open TG-GATES - Regimen: Single
Type: toxicity, organism-based, Sprague-Dawley
Design: regimen Single, gender Male, age 6 weeks
Conditions: in vivo, po, 1000 mg/kg, route gavage, dose level High; for APTT / Bas / Eos / Fbg / Hb / Ht / Lym / MCH / MCHC / MCV / Mono / Neu / PT / Plat / RBC / Ret / WBC: tissue Blood; for KIDNEY_L / KIDNEY_R / KIDNEY_TOTAL: tissue Kidney; for LIVER: tissue Liver; for A/G / ALP / ALT / AST / BUN / CRE / Ca / Cl / DBIL / GLC / IP / K / LDH / Na / PL / RALB / TBIL / TC / TG / TP / gamma-GTP: tissue Plasma

CNC(=C[N+](=O)[O-])NCCSCc1ccc(CN(C)C)o1 [RANITIDINE]
TERMINAL_BW (3 h): 218.6 g
APTT (3 h): 21.3 s
Bas (3 h): 0%
Eos (3 h): 1%
Fbg (3 h): 209 mg/dL
Hb (3 h): 12.7 g/dL
Ht (3 h): 36.7%
Lym (3 h): 76.2%
MCH (3 h): 21.7 pg
MCHC (3 h): 34.7%
MCV (3 h): 62.7 fL
Mono (3 h): 2.4%
Neu (3 h): 17.4%
PT (3 h): 12.5 s
Plat (3 h): 116.7 x10_4/uL
RBC (3 h): 585.2 x10_4/ul
Ret (3 h): 7.1%
WBC (3 h): 84.3 x10_2/uL
KIDNEY_L (3 h): 1 g
KIDNEY_R (3 h): 1 g
KIDNEY_TOTAL (3 h): 2.1 g
LIVER (3 h): 10.5 g
A/G (3 h): 1.7
ALP (3 h): 944 IU/L
ALT (3 h): 35.8 IU/L
AST (3 h): 67.2 IU/L
BUN (3 h): 9.4 mg/dL
CRE (3 h): 0.4 mg/dL
Ca (3 h): 10.5 mg/dL
Cl (3 h): 104.4 meq/L
DBIL (3 h): 0.064 mg/dL
GLC (3 h): 181.2 mg/dL
IP (3 h): 8.2 mg/dL
K (3 h): 3.7 meq/L
LDH (3 h): 148 IU/L
Na (3 h): 141.4 meq/L
PL (3 h): 133.6 mg/dL
RALB (3 h): 3.3 g/dL
TBIL (3 h): 0.1 mg/dL
TC (3 h): 68 mg/dL
TG (3 h): 44.8 mg/dL
TP (3 h): 5.3 g/dL
gamma-GTP (3 h): 1.2 IU/L
TERMINAL_BW (6 h): 213.4 g
APTT (6 h): 18.8 s
Bas (6 h): 0%
Eos (6 h): 1%
Fbg (6 h): 232.8 mg/dL
Hb (6 h): 13.4 g/dL
Ht (6 h): 38%
Lym (6 h): 72.8%
MCH (6 h): 21.7 pg
MCHC (6 h): 35.1%
MCV (6 h): 62 fL
Mono (6 h): 3%
Neu (6 h): 18.4%
PT (6 h): 12.7 s
Plat (6 h): 106.2 x10_4/uL
RBC (6 h): 613.8 x10_4/ul
Ret (6 h): 7.1%
WBC (6 h): 88.7 x10_2/uL
KIDNEY_L (6 h): 0.9 g
KIDNEY_R (6 h): 0.9 g
KIDNEY_TOTAL (6 h): 1.9 g
LIVER (6 h): 9.8 g
A/G (6 h): 1.7
ALP (6 h): 906.4 IU/L
ALT (6 h): 37.2 IU/L
AST (6 h): 63.8 IU/L
BUN (6 h): 9.4 mg/dL
CRE (6 h): 0.4 mg/dL
Ca (6 h): 10.6 mg/dL
Cl (6 h): 104 meq/L
DBIL (6 h): 0.066 mg/dL
GLC (6 h): 193.4 mg/dL
IP (6 h): 8.3 mg/dL
K (6 h): 3.6 meq/L
LDH (6 h): 126.4 IU/L
Na (6 h): 141 meq/L
PL (6 h): 151.4 mg/dL
RALB (6 h): 3.4 g/dL
TBIL (6 h): 0.1 mg/dL
TC (6 h): 80.8 mg/dL
TG (6 h): 47.8 mg/dL
TP (6 h): 5.4 g/dL
gamma-GTP (6 h): 1.4 IU/L
TERMINAL_BW (9 h): 210.2 g
APTT (9 h): 20.1 s
Bas (9 h): 0%
Eos (9 h): 1%
Fbg (9 h): 242.2 mg/dL
Hb (9 h): 13.2 g/dL
Ht (9 h): 38%
Lym (9 h): 68.6%
MCH (9 h): 21.8 pg
MCHC (9 h): 34.8%
MCV (9 h): 62.5 fL
Mono (9 h): 2.4%
Neu (9 h): 24.2%
PT (9 h): 12.6 s
Plat (9 h): 111.9 x10_4/uL
RBC (9 h): 607.2 x10_4/ul
Ret (9 h): 7.3%
WBC (9 h): 74.1 x10_2/uL
KIDNEY_L (9 h): 1 g
KIDNEY_R (9 h): 1 g
KIDNEY_TOTAL (9 h): 1.9 g
LIVER (9 h): 9.2 g
A/G (9 h): 1.6
ALP (9 h): 955.2 IU/L
ALT (9 h): 36 IU/L
AST (9 h): 65.8 IU/L
BUN (9 h): 8.8 mg/dL
CRE (9 h): 0.3 mg/dL
Ca (9 h): 10.6 mg/dL
Cl (9 h): 103.8 meq/L
DBIL (9 h): 0.066 mg/dL
GLC (9 h): 197 mg/dL
IP (9 h): 8.6 mg/dL
K (9 h): 3.6 meq/L
LDH (9 h): 126 IU/L
Na (9 h): 140.8 meq/L
PL (9 h): 152 mg/dL
RALB (9 h): 3.4 g/dL
TBIL (9 h): 0.1 mg/dL
TC (9 h): 84.6 mg/dL
TG (9 h): 30.2 mg/dL
TP (9 h): 5.5 g/dL
gamma-GTP (9 h): 1.2 IU/L
TERMINAL_BW (24 h): 228.9 g
APTT (24 h): 20.1 s
Bas (24 h): 0.2%
Eos (24 h): 1%
Fbg (24 h): 235 mg/dL
Hb (24 h): 13.9 g/dL
Ht (24 h): 39.1%
Lym (24 h): 79%
MCH (24 h): 22.4 pg
MCHC (24 h): 35.5%
MCV (24 h): 63 fL
Mono (24 h): 3.2%
Neu (24 h): 15%
PT (24 h): 11.7 s
Plat (24 h): 122.4 x10_4/uL
RBC (24 h): 621.4 x10_4/ul
Ret (24 h): 5.9%
WBC (24 h): 75.4 x10_2/uL
KIDNEY_L (24 h): 1 g
KIDNEY_R (24 h): 1 g
KIDNEY_TOTAL (24 h): 2 g
LIVER (24 h): 10.7 g
A/G (24 h): 1.6
ALP (24 h): 881.6 IU/L
ALT (24 h): 33.2 IU/L
AST (24 h): 60.4 IU/L
BUN (24 h): 15.4 mg/dL
CRE (24 h): 0.4 mg/dL
Ca (24 h): 10.8 mg/dL
Cl (24 h): 101.6 meq/L
DBIL (24 h): 0.078 mg/dL
GLC (24 h): 204.2 mg/dL
IP (24 h): 7.9 mg/dL
K (24 h): 3.7 meq/L
LDH (24 h): 127.8 IU/L
Na (24 h): 140.4 meq/L
PL (24 h): 155.6 mg/dL
RALB (24 h): 3.4 g/dL
TBIL (24 h): 0.1 mg/dL
TC (24 h): 84.4 mg/dL
TG (24 h): 67.8 mg/dL
TP (24 h): 5.6 g/dL
gamma-GTP (24 h): 0.8 IU/L
